These results are taken from PMC6270359, “Cholinesterase Enzymes Inhibitors from the Leaves of Rauvolfia Reflexa and Their Molecular Docking Study” (Molecules, 2013).

What is called IC50 is the concentration at which inhibition is half-maximal. A word on the inhibition: it is the relative decrease from the control value, in per cent. Low readings indicate a weak effect, high ones a strong effect.

The target in assay [1] is T1, acetylcholinesterase from electric eel (AChE) (Electrophorus electricus, UniProt O42275).
T1 construct: purchased Sigma Chemicals (St. Louis, MO, USA)
T1 sequence (O42275 24-633): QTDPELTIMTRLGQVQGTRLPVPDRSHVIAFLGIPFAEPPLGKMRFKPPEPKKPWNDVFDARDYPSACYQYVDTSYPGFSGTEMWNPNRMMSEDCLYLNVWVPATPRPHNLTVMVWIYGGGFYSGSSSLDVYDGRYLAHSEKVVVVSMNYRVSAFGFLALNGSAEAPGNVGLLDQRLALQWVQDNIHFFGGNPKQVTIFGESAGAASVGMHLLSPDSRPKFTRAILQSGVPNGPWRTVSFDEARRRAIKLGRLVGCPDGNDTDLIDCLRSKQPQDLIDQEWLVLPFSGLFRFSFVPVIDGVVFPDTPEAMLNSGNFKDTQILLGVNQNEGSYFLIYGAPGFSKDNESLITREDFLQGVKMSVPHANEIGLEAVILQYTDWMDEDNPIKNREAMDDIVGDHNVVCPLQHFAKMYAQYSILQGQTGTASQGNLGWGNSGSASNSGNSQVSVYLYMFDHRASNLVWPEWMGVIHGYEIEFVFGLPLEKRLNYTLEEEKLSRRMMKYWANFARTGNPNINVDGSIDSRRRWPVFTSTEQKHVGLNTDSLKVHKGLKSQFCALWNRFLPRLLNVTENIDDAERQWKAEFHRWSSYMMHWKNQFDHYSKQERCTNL
Briefly: Acetylcholinesterase inhibitory assay (Ellman's microplate assay). Format: biochemical. Conditions: for IC50: Mean ± SD (n = 3). As to the method: (§1) Acetylthiocholine iodide (ATCl), acetylcholinesterase from electric eel (AChE), 5,5'-dithiobis[2-nitrobenzoic acid] […] All the other reagents used were of analytical grade.
(§2) Cholinesterase enzymes inhibitory potential of test samples was evaluated using Ellman’s microplate assay following the method described by Ahmed and Gilani with slight modifications. […] The concentration of DMSO in final reaction mixture was 1%.
(§3) For acetylcholinesterase (AChE) inhibitory assay, 140 μL of 0.1 M sodium phosphate buffer (pH 8) was first added to a 96-wells microplate followed by 20 μL of test samples and 20 μL of 0.09 units/mL acetylcholinesterase enzyme. After 15 min of pre-incubation at 25 °C, 10 μL of 10 mM 5,5'-dithiobis (2-nitrobenzoic acid) was added into each well, followed by 10 μL of 14 mM acetylthiocholine iodide. After the initiation of enzymatic reaction, absorbance of the coloured end-product was measured for 15 min using Tecan Infinite 200 Pro Microplate Spectrophotometer (Männedorf, Switzerland) at 417 nm.
(§4) For butyrylcholinesterase (BChE) inhibitory assay, the same procedures as described above were followed except for the use of enzyme and substrate, which were BChE from equine serum and S-butyrylthiocholine chloride, respectively. Each test was conducted in triplicate. Absorbencies of the test samples were corrected by subtracting the absorbance of their respective blank. […] Percentage inhibition was calculated using the following formula: Percentage inhibition (%) = Absorbance of control - Absorbance of test sample/Absorbance of control×100%

Assay [2] deals with T2, butyrylcholinesterase from equine serum (BChE) (Equus caballus, UniProt P81908).
T2 construct: purchased Sigma Chemicals (St. Louis, MO, USA); host or cells: equine serum
T2 sequence (P81908 whole entry): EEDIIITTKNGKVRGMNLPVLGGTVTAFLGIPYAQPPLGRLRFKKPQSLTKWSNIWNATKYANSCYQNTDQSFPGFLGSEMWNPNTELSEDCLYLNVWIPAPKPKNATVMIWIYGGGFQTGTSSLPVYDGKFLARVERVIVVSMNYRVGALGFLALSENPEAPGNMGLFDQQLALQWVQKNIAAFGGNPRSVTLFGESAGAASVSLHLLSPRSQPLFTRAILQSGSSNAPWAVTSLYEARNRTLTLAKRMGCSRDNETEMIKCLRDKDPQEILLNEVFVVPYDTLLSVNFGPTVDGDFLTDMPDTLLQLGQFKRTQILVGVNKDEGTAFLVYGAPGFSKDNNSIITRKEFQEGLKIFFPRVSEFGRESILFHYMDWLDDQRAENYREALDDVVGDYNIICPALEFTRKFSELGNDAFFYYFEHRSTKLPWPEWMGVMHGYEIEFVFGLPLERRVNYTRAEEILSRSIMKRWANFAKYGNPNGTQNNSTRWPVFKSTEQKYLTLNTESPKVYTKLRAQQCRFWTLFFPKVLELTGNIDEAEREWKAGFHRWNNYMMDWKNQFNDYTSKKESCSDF
Briefly: Butyrylcholinesterase inhibitory assay (Ellman's microplate assay). The assay is classed as biochemical. As to the method: as §1, §2, §3, §4
On the technique in general: Ellman's reagent forms a yellow product with free thiols.

The mark [3] stands for this setting: isolated chemical constituents at 10 μg/mL, initial screening.
[4] abbreviates: chemical constituents, read-out: AChE inhibition, IC50 (converted).

Structures are written as SMILES. Where “and” joins values, the source holds several entries; their conditions need not be identical. Equal entries are not always repeated. Where two headings read alike, the source gives them in different places.

For `COc1cc(/C=C/C(=O)O)cc(OC)c1OC` [Compound 1, (E)-3-(3,4,5-Trimethoxyphenyl) acrylic acid], the IC50 in assay [1] (AChE inhibition, IC50, chemical constituents) is 60.1 µM; in assay [1] (read-out: AChE inhibition, IC50, chemical constituents), 60.2 ± 14.4 µM. In addition, the AChE inhibition result in assay [1] (setting [3]) is recorded as “much lower inhibition”.
For `COC(=O)/C=C/c1cc(OC)c(O)c(OC)c1` [Compound 2, (E)-methyl 3-(4-hydroxy-3,5-dimethoxyphenyl) acrylate], the “Selectivity for AChE” value in assay [1] (chemical constituents, IC50(BChE)/IC50(AChE)) came out at 0.39. The IC50 in assay [1] (setting [4]) was 158 µM; in assay [2] (chemical constituents, Mean ± SD (n = 3), read-out: BChE inhibition, IC50 (converted)) it was 61.7 µM. In addition, the inhibition at 10 µg/mL was found to be 40.4% in assay [1] (setting [3]) and 91.3% in assay [2] (setting [3]). In addition, the “Selectivity for BChE” value in assay [2] (chemical constituents, IC50(AChE)/IC50(BChE)) came out at 2.56.
With `O=C1NCCc2c1[nH]c1ccccc21` [Compound 4, 1,2,3,4-Tetrahydro-1-oxo-β-carboline], in assay [1] (setting [4]), the IC50 was 83.3 µM and 83.4 µM. In addition, the inhibition at 10 µg/mL in assay [1] (setting [3]) was 41.3%.
